Source: paper PMC9324382 (Viruses, 2022)

Target: T1, SARS-CoV-2 M^pro (main protease) (Severe acute respiratory syndrome coronavirus 2, UniProt P0DTD1)
T1 construct: gene rep
Assay: FRET peptide cleavage assay, Morrison fit
Format: biochemical

Structure (SMILES): O=c1c(O)c(-c2ccc(O)c(O)c2)oc2cc(O)ccc12 [Fisetin]
- Ki: 41.8 ± 2.1 nM
